Experimental data as given in patent publication US9340788B2 (priority 2007, dated 2016).
“Also recorded” adds a separate entry of the source.

Tests used:
PI3-K/Akt signaling = assay type: cell-based, human
Experimental: (A) HEL cells stimulated with HCMV or PDGF-AA were subjected to immunoprecipitation and western blot analyses with indicated antibodies. (B) Phospho-PDGFRα ELISA of cells+/−pretreatment with IMC-3G3 (10 μg/ml, 2 h) followed by HCMV (MOI=1) or PDGF (10 ng/ml) for 10 min. Mean values (n=6)±S.D are shown. (C) Western blot of HEL mock, HCMV, or PDGF-AA stimulated (10 min), +/−IMC-3G3 (2 μg/ml) or Gleevec® (Imatinib) (100 nM). The same membrane was used for p-Akt^Ser 473 and Akt.
HEL cells pretreated with blocking reagents (as indicated; 30 min, 37 C) were stimulated for 10 min with HCMV, PDGF-AA (5 ng/ml), or mock-treated. Cell lysates were collected in RIPA buffer (supplemented with protease and phosphatase inhibitors) and subjected to Western blot analysis.
For stimulation experiments, cells were serum-starved for 24 h, followed by stimulation with HCMV (MOI of 0.5), PDGF-AA (5-10 ng/ml, from R&D Systems), or mock, for 10 minutes. In some cases, cells were pre-treated with IMC-3G3 (ImClone Inc.) at 10 g/ml (2 or 12 h) or Gleevec® (100 nM, 1 h) prior to HCMV exposure. Cell lysates were analyzed by SDS-PAGE. Antibodies used were as follows: polyclonal anti-PDGFRα ( 1/500), phosphor-Tyrosine clone 4G10 ( 1/1000), and monoclonal anti-p85 PI3-K ( 1/1000), (Upstate Biotechnology), anti HCMV IE1 MAB810 (Chemicon; 1/1000), anti HCMV pp65 (Novocastra, 1/1000), anti-phosphor-PDGFRα ( 1/500, pTyr 754), anti-phosphor-Akt (Ser 473, 1/1000) and total Akt ( 1/1000; all from Cell Signaling). Anti-actin polyclonal control antibody was used ( 1/500, Sigma). Immunoprecipitations were performed using protein G (Pierce) according to manufacturer's instructions.

HCMV [1] = experiment: IE1 immunofluorescence of HCMV infected HEL cells; assay type: cell-based, Human cytomegalovirus; details: HEL; antibody 1 h or AG1295 15 min before HCMV; 1 h at 37 C plus additional 6 h
Experimental: HEL cells were transfected with PDGFRα siRNA (smart pool, Dharmacon) or non-targeting control siRNA (Dharmacon) for 48-60 hours when maximum protein knockdown is achieved (panels a and b. Also see FIG. 3d). Cells were then infected with Towne, AD169, TR, or CMV-GFP strains of HCMV for 1 hour, washed and returned to 37° C. in complete growth media. Supernatants obtained from these cultures were used in subsequent assays measuring production of infectious virus as described below. […] Cultures infected with supernatants from GFP-CMV treated cells were monitored daily under the fluorescence microscope. Over 40% of the control siRNA treated cells expressed CMV-GFP 1 day post infection (c, 1 dpi) and this number increased to 100% by day 6 (c, 6 dpi). Note the appearance of “plaques”-like groups of cells in control siRNA transfected cells (c, 3 and 6 dpi). […]
Measurements of Infectious Virus Production. […] A duplicate set of cultures was analyzed by immunofluorescence at 12 hours post infection (hpi) to assess percent of IE1 positive cells, as a measure of “primary infection”. […] 12 hpi cells were stained for IE1 and IE1 positive cells were counted amongst a total of 100 cells/low magnification microscopic field, 4 fields/condition. […] Where indicated, CMV-GFP infected cells were monitored daily under fluorescence microscope. […]

HCMV [2] = experiment: HCMV pp65 western blot in HEL cells; assay type: cell-based, Human cytomegalovirus; details: antibody 10 ng/ml 30 min or AG 1295 20 pM, Towne HCMV 10 min at 37 C
Experimental: HEL cells were transfected with siRNA against the PI3K p110α catalytic subunit (a mixture of 4 RNAi oligos, “smart pool” from Dharmacon) or non-targeting, control siRNA (Dharmacon) for 48 h prior to infection with HCMV (MOI of 1) for 1 hour. Cells were washed and cultured for 2 h-6 days. a. […] The mean number of IE1 positive cells is reduced by ˜50% in the PI3 Kp110α knockdown cultures—panel c**, p<0.01. PI3K p110α knock down is also significant (b, left panels, red fluorescence). However, unlike cells that lack a functional PDGFRα, PI3K p110α knock down cells are capable of producing infectious virus as shown by IE1 staining of the secondary infected cultures (panel d). A 10% decrease in infectious virus production in the cells treated with p110α siRNA is insignificant*, bars represent SD, […], panel c. Experiments were repeated twice, all conditions were assayed in triplicate. Similar results were obtained with both Towne-infected cultures (illustrated in this figure) and CMV-GFP.
Upper panel: HEL cells pretreated with anti-human PDGFRα antibody (10 ng/ml, for 30 min, clone AF-307-NA from R&D; lanes 1 and 4) or with AG 1295 (lane 3, […], from Calbiochem) were stimulated with Towne HCMV (lanes 2-4) or Mock infected (lane 1) for 10 min at 37 C. […]
Western Blot, Immunoprecipitation, and Immunofluorescence analyses. […] Cell lysates were analyzed by SDS-PAGE. […]

HCMV [3] = experiment: Viral attachment and internalization assay (pp65 immunofluorescence); assay type: cell-based, Human cytomegalovirus
Experimental: (A) HEL cells were pretreated with PBS (20 min 4° C.), IMC-3G3 (2 h, 37° C., 10 μg/ml), or PDGF-AA (20 min, 4° C., 10 ng/ml) prior to infection with HCMV (MOI of 1, 4° C., 1 h). Cells were returned to 37° C. for 30 minutes, and processed for pp65^HCMV and PDGFRα double immunofluorescence. […] All conditions were assayed in triplicate cultures. One hundred cells in 4 low magnification fields were counted. Bars represent SD.
Viral Attachment and Internalization Assays. Mouse fibroblasts and HEL cells (72 hours following siRNA transfections) were incubated with HCMV (MOI of 0.5) or mock treated for 1 hour at 4° C., after which cells were returned to 37° C. for 15, 30, or 60 min. Cells were fixed using methanol (20 min) and processed for pp65 immunofluorescence. Four low power fields were counted for each condition and pp65 positive were recorded for each 100 cells. Internalization assays were repeated twice.

HCMV [4] = experiment: HCMV IE1 / viral gene expression, western blot of infected cells; assay type: cell-based, Human cytomegalovirus; details: for HCMV IE1 gene expression: IMC-3G3 10 μg/ml 12 h or Gleevec 100 nM 1 h pre-treatment, western blot
Experimental: (A) pp65 immunofluorescence after HCMV treatment (1 h, 4° C.) followed by shifting to 37° C. for indicated times. Rows represent (top to bottom): HEL, PDGFRα null fibroblasts, parental fibroblasts, null fibroblasts overexpressing hPDGFRα, HEL transfected with control, or PDGFRα siRNA. Nuclei were stained with DAPI. (B) Average±S.D. pp65 positive/100 cells counted in triplicate from (A). (C) Mock or HCMV infected cells were analyzed by western blotting with the indicated antibodies. Lanes 1-4 indicate HEL, 325S, PDGFRα null and PDGFRα null over-expressing hPDGFRα, respectively. (D) HEL transfected with control or PDGFRα siRNA were mock (lanes 1) or HCMV-treated (lanes 2) and subjected to western blots with indicated antibodies. (E) Western blot of HEL and U87 lysates after infection with mock (lanes 1), HCMV (lanes 2), or HCMV pretreated with IMC-3G3 (10 μg/ml, 12 h, lanes 3) or Gleevec (100 nM, 1 h, lanes 4). (F) PDGFRα siRNA treated cells infected with indicated HCMV strains and immunostained for IE1 12 hpi (primary infection). 6 dpi, supernatants were used to infect naïve HEL cells, followed by IE1 immunostaining and quantification (secondary infection). Average (n=6) values±S.D. are shown.
HUVEC cells were pre-treated with IMC-3G3 (10 μg/ml, Imclone, 12 h), or Gleevec (100 nM, 1 h) prior to HCMV or mock infection. 12 hours post-infection, cell lysates were analyzed by western blot for the presence of IE1 gene product. […] The same blot was stripped and re-probed for actin (lower panel). Lane designation is 1—Mock, 2—HCMV, 3—IMC-3G3+HCMV, 4—Gleevec+HCMV.
Upper panel: HEL cells pretreated with anti-human PDGFRα antibody (10 ng/ml, for 30 min, clone AF-307-NA from R&D; lanes 1 and 3) or with AG 1295 (lane 4, […], from Calbiochem) were stimulated with Towne HCMV (lanes 2 through 4) or Mock infected (lane 1) for 10 min at 37 C. Cells were washed and further incubated for 2 h at 37 C (to allow expression of IE1 gene product). Afterwards, cells were harvested in RIPA buffer and processed for western blotting as described.
Western Blot, Immunoprecipitation, and Immunofluorescence analyses. For stimulation experiments, cells were serum-starved for 24 h, followed by stimulation with HCMV (MOI of 0.5), PDGF-AA (5-10 ng/ml, from R&D Systems), or mock, for 10 minutes. In some cases, cells were pre-treated with IMC-3G3 (ImClone Inc.) at 10 µg/ml (2 or 12 h) or Gleevec® (100 nM, 1 h) prior to HCMV exposure. Cell lysates were analyzed by SDS-PAGE. Antibodies used were as follows: polyclonal anti-PDGFRα ( 1/500), phosphor-Tyrosine clone 4G10 ( 1/1000), and monoclonal anti-p85 PI3-K ( 1/1000), (Upstate Biotechnology), anti HCMV IE1 MAB810 (Chemicon; 1/1000), anti HCMV pp65 (Novocastra, 1/1000), anti-phosphor-PDGFRα ( 1/500, pTyr 754), anti-phosphor-Akt (Ser 473, 1/1000) and total Akt ( 1/1000; all from Cell Signaling). Anti-actin polyclonal control antibody was used ( 1/500, Sigma). Immunoprecipitations were performed using protein G (Pierce) according to manufacturer's instructions. For immunofluorescence, monoclonal HCMV pp65 and phosphor-PDGFRα (p-Tyr 754, Santa Cruz Biotechnology) were used, overnight at 4° C., followed by 1 hour incubation with secondary antibodies conjugated to Alexa-488, or Alexa 568 ( 1/5,000, Molecular Probes). Nuclei were counterstained with DAPI. Co-immunoprecipitation experiments were performed using full length soluble purified recombinant gB (gB 680, from Don Diamond, City of Hope, Calif.) and detergent soluble extract of HEL cells generated in lysis buffer (1% NP-40, 75 mM NaCl and 50 mM Tris-HCl). 500 μg of protein from total cell extract was incubated with 25 μg of gB 680 in lysis buffer in the presence of an anti-gB (Virusys, Inc) or anti-PDGFRα (R&D) antibody overnight at 4° C. Immune complexes were recovered with protein A-Sepharose beads (2 hr incubation), denatured and separated on SDS-PAGE for western blot with anti-gB (Virusys, Inc) or anti-PDGFRα (Cell Signaling Technology) antibodies.

[5] = human epithelial, endothelial, and fibroblast cells

## Cc1cc2ncc(-c3ccccc3)nc2cc1C [AG1295, reference compound]
PI3-K/Akt signaling; HEL pretreated with blocking reagents 30 min, 37 C, stimulated 10 min with HCMV or PDGF-AA 5 ng/ml
  p-Akt levels induced by either PDGF or HCMV: decreased
HCMV [1]
  IE1 levels: significant decrease
HCMV [2]
  amount of pp65 (anti-pp65 blot): decrease

## Cc1ccc(NC(=O)c2ccc(CN3CCN(C)CC3)cc2)cc1Nc1nccc(-c2cccnc2)n1 [Gleevec, 4-[(4-methylpiperazin-1-yl)methyl]-N-[4-methyl-3-[(4-pyridin-3-ylpyrimidin-2-yl)amino]-phenyl]-benzamide, reference compound]
HCMV [3]; [5]
  HCMV viral internalization: completely inhibited
HCMV [4]; HEL cells
  HCMV IE1 gene expression: completely inhibited
HCMV [4]; HUVEC, pre-treated with IMC-3G3 10 μg/ml 12 h or Gleevec 100 nM 1 h, western blot 12 hours post-infection
  HCMV IE1 expression: completely inhibited
HCMV [4]; U87 glioma cells
  HCMV IE1 gene expression: completely inhibited
HCMV [4]; [5]
  HCMV gene expression: completely inhibited
PI3-K/Akt signaling; HEL, 10 min stimulation, IMC-3G3 2 μg/ml or Gleevec 100 nM, p-Akt Ser 473
  Akt phosphorylation induced by either HCMV or PDGF-AA: abolished

## PDGF-AA: the authentic (genuine) PDGFRα ligand, from R&D Systems [reference compound]
HCMV [3]; HEL cells harboring endogenous PDGFRα, pretreatment with PDGF-AA
  HCMV entry: significantly decreased; also recorded: competitively inhibited
HCMV [3]; HEL cells, IMC-3G3 2 h, 37° C., 10 μg/ml, PDGF-AA 20 min, 4° C., 10 ng/ml, HCMV MOI of 1, 30 min at 37° C.
  inhibition of HCMV entry (pp65 positive cells): ~30%
